Reference: ChEMBL document CHEMBL1201862, “PubChem BioAssay data set” (2004)
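The compound was tested at five concentrations on cells cultured in 96-well plates, with a 48-hour exposure period. Abbreviation: GI50, concentration required for 50% inhibition of growth.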 Calls of active or inactive are those of the source. No stated cut-off is given here; in the data, active = GI50 up to about 1.1 µM and inactive = higher.

Key:
Assay in all cases: inhibition of tumour cell growth, NCI panel, 48 h
MDA-N = test system: MDA-N
CAKI-1 = test system: CAKI-1
KM12 = test system: KM12
SF-539 = test system: SF-539
SNB-75 = test system: SNB-75
DU-145 = test system: DU-145
MOLT-4 = test system: MOLT-4
U-251 = test system: U-251
HOP-92 = test system: HOP-92
T47D = test system: T47D
HCC 2998 = test system: HCC 2998
OVCAR-4 = test system: OVCAR-4
SN12C = test system: SN12C
SW-620 = test system: SW-620
LOX IMVI = test system: LOX IMVI
TK-10 = test system: TK-10
RXF 393 = test system: RXF 393
HCT-15 = test system: HCT-15
MDA-MB-231 = test system: MDA-MB-231
RPMI-8226 = test system: RPMI-8226
M14 = test system: M14
NCI-H460 = test system: NCI-H460
786-0 = test system: 786-0
NCI/ADR-RES = test system: NCI/ADR-RES
PC-3 = test system: PC-3
Malme-3M = test system: Malme-3M
EKVX = test system: EKVX
BT-549 = test system: BT-549
HCT-116 = test system: HCT-116
SNB-19 = test system: SNB-19
UO-31 = test system: UO-31
UACC-257 = test system: UACC-257
SK-MEL-5 = test system: SK-MEL-5
SF-295 = test system: SF-295
K562 = test system: K562
ACHN = test system: ACHN
SK-MEL-28 = test system: SK-MEL-28
SK-MEL-2 = test system: SK-MEL-2
NCI-H23 = test system: NCI-H23
COLO 205 = test system: COLO 205
OVCAR-5 = test system: OVCAR-5
A549 = test system: A549
A498 = test system: A498
UACC-62 = test system: UACC-62
CCRF-CEM = test system: CCRF-CEM
MDA-MB-435 = test system: MDA-MB-435
HT-29 = test system: HT-29
HL-60 = test system: HL-60
MCF7 = test system: MCF7
OVCAR-3 = test system: OVCAR-3
Hs-578T = test system: Hs-578T
HOP-62 = test system: HOP-62
SF-268 = test system: SF-268
NCI-H226 = test system: NCI-H226
OVCAR-8 = test system: OVCAR-8
SK-OV-3 = test system: SK-OV-3
NCI-H522 = test system: NCI-H522
IGROV-1 = test system: IGROV-1

Measured: GI50

CC(Cl)CC(=O)OCC1CCCN2CCCCC12 (stereo not drawn)
> 100 µM: HCT-15
inactive: MDA-N > 100 µM | CAKI-1 > 100 µM | KM12 > 100 µM | SF-539 > 100 µM | SNB-75 > 100 µM | DU-145 > 100 µM | MOLT-4 > 100 µM | U-251 > 100 µM | HOP-92 > 100 µM | T47D > 100 µM | HCC 2998 > 100 µM | OVCAR-4 > 100 µM | SN12C > 100 µM | SW-620 > 100 µM | LOX IMVI > 100 µM | TK-10 > 100 µM | RXF 393 > 100 µM | MDA-MB-231 > 100 µM | RPMI-8226 > 100 µM | M14 > 100 µM | NCI-H460 > 100 µM | 786-0 > 100 µM | NCI/ADR-RES > 100 µM | PC-3 > 100 µM | Malme-3M > 100 µM | EKVX > 100 µM | BT-549 > 100 µM | HCT-116 > 100 µM | SNB-19 > 100 µM | UO-31 > 100 µM | UACC-257 > 100 µM | SK-MEL-5 > 100 µM | SF-295 > 100 µM | K562 > 100 µM | ACHN > 100 µM | SK-MEL-28 > 100 µM | SK-MEL-2 > 100 µM | NCI-H23 > 100 µM | COLO 205 > 100 µM | OVCAR-5 > 100 µM | A549 > 100 µM | A498 > 100 µM | UACC-62 > 100 µM | CCRF-CEM > 100 µM | MDA-MB-435 > 100 µM | HT-29 > 100 µM | HL-60 54.7 µM | MCF7 > 100 µM | OVCAR-3 > 100 µM | Hs-578T > 100 µM | HOP-62 > 100 µM | SF-268 > 100 µM | NCI-H226 > 100 µM | OVCAR-8 > 100 µM | SK-OV-3 > 100 µM

CN1CCCCC1CCN1CCCCC1 (stereo not drawn)
inactive: MDA-N > 100 µM | CAKI-1 > 100 µM | KM12 > 100 µM | SNB-75 > 100 µM | DU-145 > 100 µM | MOLT-4 > 100 µM | U-251 > 100 µM | HOP-92 > 100 µM | T47D > 100 µM | HCC 2998 > 100 µM | OVCAR-4 > 100 µM | SN12C > 100 µM | SW-620 > 100 µM | LOX IMVI > 100 µM | TK-10 > 100 µM | RXF 393 > 100 µM | MDA-MB-231 > 100 µM | RPMI-8226 > 100 µM | M14 > 100 µM | NCI-H460 > 100 µM | 786-0 > 100 µM | NCI/ADR-RES > 100 µM | PC-3 > 100 µM | Malme-3M > 100 µM | EKVX > 100 µM | BT-549 > 100 µM | HCT-116 > 100 µM | SNB-19 > 100 µM | UO-31 > 100 µM | UACC-257 > 100 µM | SK-MEL-5 > 100 µM | NCI-H522 > 100 µM | SF-295 > 100 µM | K562 > 100 µM | ACHN > 100 µM | IGROV-1 > 100 µM | SK-MEL-28 > 100 µM | SK-MEL-2 > 100 µM | NCI-H23 > 100 µM | COLO 205 56.4 µM | OVCAR-5 > 100 µM | A549 > 100 µM | A498 > 100 µM | UACC-62 > 100 µM | MDA-MB-435 > 100 µM | HT-29 > 100 µM | HL-60 83 µM | MCF7 > 100 µM | OVCAR-3 > 100 µM | Hs-578T > 100 µM | HOP-62 > 100 µM | SF-268 > 100 µM | NCI-H226 > 100 µM | OVCAR-8 > 100 µM | SK-OV-3 > 100 µM
> 100 µM: HCT-15

Clc1ccccc1C(c1ccccc1)(c1ccccc1)n1ccnc1 [CLOTRIMAZOLE]
8.67 µM: HCT-15
inactive: MDA-N 11.9 µM | CAKI-1 17.4 µM | KM12 11.7 µM | SNB-75 16.5 µM | DU-145 17.3 µM | MOLT-4 8.95 µM | U-251 14.8 µM | HOP-92 11.8 µM | T47D 7.85 µM | HCC 2998 16.5 µM | OVCAR-4 9.82 µM | SW-620 12 µM | TK-10 15.3 µM | RXF 393 17.4 µM | MDA-MB-231 14.9 µM | RPMI-8226 6.32 µM | M14 13.5 µM | NCI-H460 10.7 µM | 786-0 14.9 µM | NCI/ADR-RES 9.25 µM | PC-3 7.03 µM | Malme-3M 4.8 µM | EKVX 7.93 µM | BT-549 8.05 µM | HCT-116 7.82 µM | SNB-19 14.4 µM | UO-31 6.56 µM | UACC-257 10.8 µM | SK-MEL-5 7.78 µM | NCI-H522 6.38 µM | SF-295 9.95 µM | K562 5.97 µM | ACHN 10 µM | IGROV-1 7.57 µM | SK-MEL-28 16.2 µM | SK-MEL-2 12.1 µM | NCI-H23 13 µM | COLO 205 8.99 µM | OVCAR-5 11.8 µM | A549 8.2 µM | A498 20.6 µM | UACC-62 13.3 µM | CCRF-CEM 5.93 µM | MDA-MB-435 12.5 µM | HT-29 9.25 µM | MCF7 7.33 µM | OVCAR-3 5.66 µM | Hs-578T 15.1 µM | HOP-62 11.4 µM | SF-268 16.5 µM | OVCAR-8 11 µM | SK-OV-3 14.5 µM

C=CCn1c(-c2ccc([N+](=O)[O-])cc2)csc1=N
inactive: MDA-N 29.1 µM | CAKI-1 69.5 µM | KM12 36.6 µM | SNB-75 19.5 µM | DU-145 43.8 µM | U-251 54.1 µM | HOP-92 47.5 µM | T47D 26.2 µM | HCC 2998 > 100 µM | OVCAR-4 42.8 µM | SN12C > 100 µM | SW-620 70 µM | LOX IMVI 20.3 µM | TK-10 66.7 µM | RXF 393 7.43 µM | MDA-MB-231 16.8 µM | M14 56.9 µM | NCI-H460 61.1 µM | 786-0 74.6 µM | NCI/ADR-RES 44.3 µM | PC-3 48.1 µM | Malme-3M 76.9 µM | EKVX 16.4 µM | BT-549 92.5 µM | HCT-116 37.3 µM | SNB-19 > 100 µM | UO-31 37.2 µM | UACC-257 13.1 µM | SK-MEL-5 14.8 µM | NCI-H522 36.6 µM | SF-295 18.4 µM | K562 9.59 µM | ACHN 83.2 µM | IGROV-1 59 µM | SK-MEL-28 > 100 µM | SK-MEL-2 91.2 µM | NCI-H23 30 µM | COLO 205 > 100 µM | OVCAR-5 > 100 µM | A549 35.5 µM | A498 > 100 µM | UACC-62 37.7 µM | CCRF-CEM 11.1 µM | MDA-MB-435 43.5 µM | HT-29 32 µM | HL-60 18.9 µM | MCF7 25.4 µM | OVCAR-3 41.4 µM | Hs-578T > 100 µM | HOP-62 78.2 µM | SF-268 74.5 µM | NCI-H226 41.6 µM | OVCAR-8 69.2 µM | SK-OV-3 54.7 µM
64.7 µM: HCT-15

c1cc2c(cc1NC1=NCCO1)CCCC2
inactive: MDA-N 1.41 µM | CAKI-1 18.6 µM | KM12 2.77 µM | SF-539 2.74 µM | SNB-75 2.08 µM | DU-145 5.08 µM | MOLT-4 2.65 µM | U-251 4.16 µM | HOP-92 2.86 µM | T47D 10.6 µM | HCC 2998 2.55 µM | OVCAR-4 10.7 µM | SN12C 3.56 µM | SW-620 9.73 µM | LOX IMVI 3.13 µM | TK-10 10.6 µM | RXF 393 2.67 µM | MDA-MB-231 2.16 µM | RPMI-8226 2.92 µM | M14 2.88 µM | NCI-H460 3.3 µM | 786-0 5.07 µM | NCI/ADR-RES 2.18 µM | PC-3 3.01 µM | Malme-3M 6.7 µM | EKVX 8.04 µM | BT-549 13.7 µM | HCT-116 2.76 µM | SNB-19 21.7 µM | UO-31 6.97 µM | UACC-257 3.77 µM | SK-MEL-5 3.05 µM | NCI-H522 3.52 µM | SF-295 4.02 µM | K562 2.45 µM | ACHN 7.59 µM | IGROV-1 4.37 µM | SK-MEL-28 5.19 µM | SK-MEL-2 2.97 µM | NCI-H23 4.09 µM | COLO 205 1.84 µM | OVCAR-5 6.07 µM | A549 4.8 µM | A498 3.76 µM | UACC-62 4.11 µM | CCRF-CEM 2.72 µM | MDA-MB-435 1.57 µM | HT-29 2.62 µM | HL-60 2.66 µM | OVCAR-3 3.51 µM | Hs-578T 4.6 µM | HOP-62 2.67 µM | SF-268 5.56 µM | NCI-H226 3.37 µM | OVCAR-8 3.66 µM | SK-OV-3 4.38 µM
3.45 µM: HCT-15
active: MCF7 0.619 µM
